In patent US20230312587A1, “PTERIDINONE COMPOUNDS AND USES THEREOF” (Vertex Pharmaceutical Incorporated, priority 2018, published 2023):
Like-named read-outs stand apart in the source and are kept apart here.

Test system: β-catenin-TCF-mediated reporter transcription activity in Colo 205 cells
Assay: Colo 205 reporter assay (TCF/LEF luciferase)
Format: cell-based
Conditions: five hours after addition of compound
Excerpt: The compounds of the invention described herein were screened using the assay procedure for β-catenin-TCF-mediated reporter transcription activity described below.
Reporter cell lines were generated by stably transfecting cells of cancer cell lines (e.g., colon cancer) with a plasmid reporter construct (From SABiosciences, a QIAGEN company) that includes TCF/LEF promoter driving expression of the firefly luciferase gene. TCF/LEF reporter constructs were made in which TCF/LEF promoter, a promoter with optimal number of TCF/LEF binding sites designed by SABiosceinces, was linked upstream of the firefly luciferase gene. This construct could also include a puromycin resistance gene as a selectable marker. This construct could also be used to stably transfect Colo 205 cells, a colon cancer cell line having a mutated APC gene that causes a constitutively active β-catenin. A control cell line was generated using another plasmid construct containing the luciferase gene under the control of a CMV basal promoter which is not activated by p-catenin.
Colo 205 Cultured cells with a stably transfected reporter construct were plated at approximately 10,000 cells per well into 384 well multi-well plates for twenty four hours. The testing compounds were then added to the wells in 2-fold serial dilutions using a twenty micromolar top concentration. A series of control wells for each cell type received only compound solvent. Five hours after the addition of compound, reporter activity for luciferase was assayed, by addition of the SteadyGlo luminescence reagent (Promega). The reporter luminescence activity was measured using Pherastar plate reader (BMG Labtech). Readings were normalized to DMSO only treated cells, and normalized activities were then used in the IC50 calculations. The Colo 205 reporter assay data are summarized in Table 45: A<0.3 μM; 0.3 μM≤B<1.0 μM; 1.0 μM≤C<5.0 μM; D≥5.0 μM
Colo 205 reporter assay data has also been obtained for certain R-isomers of Formula (I) wherein R^4 is —H or -D, and wherein the carbon to which R^3 and R^4 are attached (C2 carbon of Formula (X)) has R stereochemistry; such epimeric compounds are represented using the suffix “B” attached to the Compound described herein having the S stereochemistry at the carbon to which R^3 and R^4 are attached: […]

[1] = Homo sapiens, COLO 205, 5 h, Colo 205 TCF/LEF luciferase reporter, read-out: TCF reporter Colo205 IC50

SMILES | IC50 [1] | also measured
COC(=O)N(Cc1cnn(Cc2ccc(C(F)(F)F)nc2)c1)c1nc(C)c2c(n1)N(C)[C@@H](C)C(=O)N2 [Compound 407, methyl (7S)-((1-((6-(trifluoromethyl)pyridin-3-yl)methyl)-1H-pyrazol-4-yl)methyl)(4,7,8-trimethyl-6-oxo-5,6,7,8-tetrahydropteridin-2-yl)carbamate] | – | IC50 (Homo sapiens, COLO 205, 5 h, Colo 205 cells with stably transfected TCF/LEF luciferase reporter, read-out: TCF reporter Colo205): ≥ 5 µM
CC(=O)NCCCC[C@H](N)C(=O)N(Cc1cnn(Cc2ccc(C(F)(F)F)nc2)c1)c1nc(C)c2c(n1)N(C)[C@@H](C)C(=O)N2 [Compound 404, (7S)-6-acetamido-2-amino-N-((1-((6-(trifluoromethyl)pyridin-3-yl)methyl)-1H-pyrazol-4-yl)methyl)-N-((S)-4,7,8-trimethyl-6-oxo-5,6,7,8-tetrahydropteridin-2-yl)hexanamide] | – | IC50 (Colo 205 cells with stably transfected TCF/LEF luciferase reporter, read-out: TCF reporter Colo205): ≥ 5 µM
Cc1nc(N[C@H]2C[C@H](Nc3cnc(C(F)(F)F)cn3)C2)nc2c1NC(=O)[C@H](C(C)C)N2C [Compound 558, (S)-7-isopropyl-4,8-dimethyl-2-((trans-3-((5-(trifluoromethyl)pyrazin-2-yl)amino)cyclobutyl)amino)-7,8-dihydropteridin-6(5H)-one] | 1 to 5 µM | –
Cc1nc(NC2CN(C(=O)Cc3ccc(C(F)(F)F)nc3)C2)nc2c1NC(=O)[C@H](C(C)C)N2C [Compound 594, (S)-7-isopropyl-4,8-dimethyl-2-((1-(2-(6-(trifluoromethyl)pyridin-3-yl)acetyl)azetidin-3-yl)amino)-7,8-dihydropteridin-6(5H)-one] | 1 to 5 µM | –
Cc1nc(NC2CN(C(=O)c3ccn(C(F)F)n3)C2)nc2c1NC(=O)[C@H](C(C)C)N2C [Compound 614, (S)-2-((1-(1-(difluoromethyl)-1H-pyrazole-3-carbonyl)azetidin-3-yl)amino)-7-isopropyl-4,8-dimethyl-7,8-dihydropteridin-6(5H)-one] | 1 to 5 µM | –
CO[C@H](C)[C@H]1C(=O)Nc2c(C)nc(N[C@H]3C[C@@H](Cc4nc(C(F)(F)F)no4)C3)nc2N1C [Compound 664, (S)-7-((R)-1-methoxyethyl)-4,8-dimethyl-2-(((1s,3R)-3-((3-(trifluoromethyl)-1,2,4-oxadiazol-5-yl)methyl)cyclobutyl)amino)-7,8-dihydropteridin-6(5H)-one] | – | IC50 (Colo 205 TCF/LEF luciferase reporter, read-out: TCF reporter Colo205 IC50): 0.3 to 1 µM

The next lines start with results.

IC50 [1] | SMILES | also measured
0.3 to 1 µM | CC[C@H]1C(=O)N(C)c2cnc(NCc3cnn(Cc4cc(F)c(F)c(F)c4)c3)nc2N1CC(F)(F)F [Compound 33, (7S)-7-ethyl-5-methyl-2-(((1-(3,4,5-trifluorobenzyl)-1H-pyrazol-4-yl)methyl)amino)-8-(2,2,2-trifluoroethyl)-7,8-dihydropteridin-6(5H)-one] | –
< 0.3 µM | C=C(C)c1nc(C(F)(F)F)ccc1Cn1cc(CNc2nc(C)c3c(n2)N(C)[C@@H](C)C(=O)N3)cn1 [Compound 387, (7S)-4,7,8-Trimethyl-2-(((1-((2-(prop-1-en-2-yl)-6-(trifluoromethyl)pyridin-3-yl)methyl)-1H-pyrazol-4-yl)methyl)amino)-7,8-dihydropteridin-6(5H)-one] | –
< 0.3 µM | Cc1nc(NCc2cnn(C3CCC(c4ccc(F)cc4)C3)c2)nc2c1NC(=O)[C@H](C)N2C (stereo partly drawn) [Compound 137, (7S)-2-(((1-(3-(4-fluorophenyl)cyclopentyl)-1H-pyrazol-4-yl)methyl)amino)-4,7,8-trimethyl-7,8-dihydropteridin-6(5H)-one] | –
< 0.3 µM | CC(C)c1ccccc1Cn1cc(CNc2ncc3c(n2)N(C)[C@@H](C)C(=O)N3)cn1 [Compound 79, (7S)-2-(((1-(2-isopropylbenzyl)-1H-pyrazol-4-yl)methyl)amino)-7,8-dimethyl-7,8-dihydropteridin-6(5H)-one] | –
< 0.3 µM | Cc1nc(NCc2cnn([C@H](C)c3ccc(F)cc3)c2)nc2c1NC(=O)[C@H](C)N2C [Compound 72, (7S)-2-(((1-((R)-1-(4-fluorophenyl)ethyl)-1H-pyrazol-4-yl)methyl)amino)-4,7,8-trimethyl-7,8-dihydropteridin-6(5H)-one] | –
